# Results reported in patent US20100267712A1, “ISOINDOLINE COMPOUNDS FOR THE TREATMENT OF SPINAL MUSCULAR ATROPHY AND OTHER USES” (The United States of America, as represented by the …, priority 2007, published 2010).
# pEC50: −log10 of the molar value.
# What was measured:
# [1] = tested on: SMN2-linked luciferase-reporter gene construct; assay: SMN Splice Reporter Assay (SMN2-linked luciferase reporter); assay type: cell-based; conditions: for pEC50: cervical carcinoma cell lines, SMN2 splice luciferase reporter; for Fold Increase: fold-increase of luciferase over baseline reading of transformed cells without any test compound
# How it was run: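 Cervical carcinoma cells carrying an SMN2-luciferase splicing reporter, in-frame only with exon 7 inclusion, were treated with compound. Luciferase activity reported as fold increase over untreated transformed cells, with EC50 derived.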
# [2] = tested on: SMN-containing gems in type 1 SMA patient fibroblasts (3813 cells); assay: SMN-containing gem count in SMA patient fibroblasts; assay type: cell-based, human; conditions: 48 hours, 3813 fibroblasts
# Source text: SMN protein can be found in punctate nuclear particles called “gems” (Liu and Dreyfuss, EMBO J, 15 (14): 3555-3565 (1996)). In fibroblast cells derived from SMA patients, the number of gems corresponds to disease severity as follows: severe type 1 patients have approximately 5 gems per 100 nuclei; mild type 3 patients have 20-50 gems per 100 nuclei; normal individuals have approximately 100-150 gems per 100 nuclei (Coovert et al., Hum Mol Genet, 6 (8): 1205-1214 (1997), Young et al., Exp Cell Res, 265 (2): 252-261 (2001)).
# Gems are detectable by immunohistochemistry and gem counts in patient fibroblasts have been used to test the ability of compounds to increase SMN protein levels (Mattis et al., Hum Genet, 120: 589-601 (2006)). Following these methods, fibroblast cells from a type 1 SMA patient (3813 cells, Coriell Cell Repositories) were treated for 48 hours with a compound of the invention. The cells were then fixed and incubated with a monoclonal antibody against SMN (4B7, Wolstencroft et al., Hum Mol Genet, 14: 1199-1210 (2005)). A FITC-conjugated anti-mouse secondary antibody was used to visualize the labeled gems. A positive control in these experiments was provided by fibroblasts from the same patient treated with 1000 μM valproic acid.
# SMN protein = assay: Western blot of total cellular SMN protein in SMA type I fibroblasts; assay type: cell-based, human; conditions: 48 hours, 3813 cells
# Procedure: Western blots were performed using standard methods. SMA type I fibroblasts (3813 cells; Coriell Cell Repositories) were treated with compounds for 48 hours. Monoclonal SMN anti-SMN antibody 4B7 (Wolstencroft et al., Hum Mil Genet, 14:1199-1210 (2005)) was used to identify SMN protein. Tubulin was used as an internal normalization standard. DMSO treatment serves as the negative control.
# [3] = tested on: translational stop codon read-through, human SMN2 open reading frame-luciferase; assay: Translational read-through luciferase reporter assay (luciferase preceded by the open reading frame of the human SMN2 gene); assay type: cell-based
# Source text: This assay was similar in design to that described in WO 01/44516 A2. This was a cell-based luciferase reporter assay designed to detect translational read-through via insertion of a translational stop codon within the coding sequence that includes luciferase. In the presence of compounds that promote read-through of translational stop codons, active luciferase was produced and detected via chemiluminescence. Compounds of the invention typically were active in three versions of this assay: luciferase reporter containing a UGA stop codon, luciferase reporter containing a UAG stop codon, which is the first stop codon downstream of the improper splice junction between exons 6 and 8 in the human SMN2 transcript, and luciferase preceded by the open reading frame of the human SMN2 gene.
melting point,pEC50 [1],SMILES,Fold Increase [1],Average number of gems per 100 nuclei ([2]; 1 μM compound),maximal fold induction [3],also measured
109 to 110 °C,–,"COc1ccc2c(c1)C(=O)N(c1ccc(C(C)C)cn1)C2 [Example 39, 2-(5-isopropylpyridin-2-yl)-6-methoxyisoindolin-1-one]",–,–,–,–
230 to 234 °C,–,"COc1ccc2c(c1)C(=O)N(c1ccc3c(ccn3C)n1)C2 [Example 41, 6-methoxy-2-(1-methyl-1H-pyrrolo[3,2-b]pyridin-5-yl)isoindolin-1-one]",–,–,–,–
205 to 210 °C,–,"COc1ccc2c(c1)C(=O)N(c1cc3ccn(C)c3cn1)C2 [Example 42, 6-methoxy-2-(1-methyl-1H-pyrrolo[2,3-c]pyridin-5-yl)isoindolin-1-one]",–,–,–,–
198 to 199 °C,–,"COc1ccc2c(c1)C(=O)N(c1cnc3c(ccn3C)c1)C2 [Example 43, 6-methoxy-2-(1-methyl-1H-pyrrolo[2,3-b]pyridin-5-yl)isoindolin-1-one]",–,–,–,–
213 to 214 °C,–,"COc1ccc2c(c1)C(=O)N(c1ccc3c(cnn3C)c1)C2 [Example 44, 6-methoxy-2-(1-methyl-1H-indazol-5-yl)isoindolin-1-one]",–,–,–,–
123 to 127 °C,–,"COc1ccc2c(c1)C(=O)N(c1ccc3c(c1)CCCN3C)C2 [Example 45, 6-methoxy-2-(1-methyl-1,2,3,4-tetrahydroquinolin-6-yl)isoindolin-1-one]",–,–,–,–
170 to 176 °C,–,"O=C1c2ccccc2CN1c1ccc2c(c1)OCCO2 [Example 46, 2-(2,3-dihydrobenzo[b][1,4]dioxin-6-yl)isoindolin-1-one]",–,–,–,–
204 to 207 °C,–,"COc1ccc2c(c1)C(=O)N(c1ccc3ncsc3c1)C2 [Example 47, 2-(benzo[d]thiazol-6-yl)-6-methoxyisoindolin-1-one]",–,–,–,–
141 to 143 °C,–,"COc1ccc2c(c1)C(=O)N(c1ccc3ccoc3c1)C2 [Example 48, 2-(benzofuran-6-yl)-6-methoxyisoindolin-1-one]",–,–,–,–
245 to 247 °C,–,"COc1ccc2c(c1)C(=O)N(c1ccc3nc(C)ncc3c1)C2 [Example 49, 6-methoxy-2-(2-methylquinazolin-6-yl)isoindolin-1-one]",–,–,–,–
137 to 139 °C,–,"O=C1c2cc(OC(F)F)ccc2CN1c1ccc2c(c1)CCC2 [Example 50, 6-(difluoromethoxy)-2-(2,3-dihydro-1H-inden-5-yl)isoindolin-1-one]",–,–,–,–
220 to 223 °C,–,"COc1ccc2c(c1)C(=O)N(c1ccc3cccnc3c1)C2 [Example 51, 6-methoxy-2-(quinolin-7-yl)isoindolin-1-one]",–,–,–,–
–,7.35,COc1ccc2c(c1)C(=O)N(c1ccc3c(ccn3C)c1)C2 [Example 118417],1.485,–,–,Average number of gems per 100 nuclei ([2]; 3 μM compound): 53
–,6.99,COc1ccc2c(c1)C(=O)N(c1ccc3ccsc3c1)C2 [Example 118739],1.617,76,–,–
–,7.23,COc1ccc2c(c1)C(=O)N(c1ccc3occc3c1)C2 [Example 119047],1.456,–,2.04,Average number of gems per 100 nuclei ([2]; 0.1 μM compound): 32; SMN:Tubulin ratio as % of Vehicle Control (SMN protein; 0.1 μM): 125.19%; pEC50 [3]: 5.37
–,7.17,CCCc1ccc2c(c1)C(=O)N(c1ccc3c(ccn3C)c1)C2 [Example 119522],1.557,6,1.73,pEC50 [3]: 5.74
–,6.95,Cn1ccc2cc(N3Cc4ccc(OC(F)F)cc4C3=O)ccc21 [Example 119537],1.604,–,2.12,Average number of gems per 100 nuclei ([2]; 0.1 μM compound): 31; pEC50 [3]: 5.87
–,6.97,COc1ccc2c(c1)C(=O)N(c1ccc3cc[nH]c3c1)C2 [Example 119869],1.716,49,–,–
–,7.70,COc1ccc2c(c1)C(=O)N(c1ccc3c(c1)CCCN3C)C2 [Example 120121],1.702,–,–,Average number of gems per 100 nuclei ([2]; 0.1 μM compound): 16

melting point,pEC50 [1],SMILES,Fold Increase [1],Average number of gems per 100 nuclei ([2]; 1 μM compound),maximal fold induction [3],also measured
–,7.52,COc1ccc2c(c1)C(=O)N(c1ccc3ncccc3c1)C2 [Example 120286],1.713,–,–,Average number of gems per 100 nuclei ([2]; 0.1 μM compound): 132
–,6.94,COc1ccc2c(c1)C(=O)N(c1ccc3c(c1)cc(C)n3C)C2 [Example 120595],1.531,32,–,–
–,6.90,COc1ccc2c(c1)C(=O)N(c1ccc3ncsc3c1)C2 [Example 120596],1.591,–,2.23,Average number of gems per 100 nuclei ([2]; 0.1 μM compound): 148; SMN:Tubulin ratio as % of Vehicle Control (SMN protein; 1 μM): 124.41%; pEC50 [3]: 5.76
–,6.81,COc1ccc2c(c1)C(=O)N(c1ccc3cn[nH]c3c1)C2 [Example 120602],1.412,–,2.12,Average number of gems per 100 nuclei ([2]; 0.1 μM compound): 68; SMN:Tubulin ratio as % of Vehicle Control (SMN protein; 1 μM): 123.67%; pEC50 [3]: 5.96
–,6.85,O=C1c2cc(OC(F)F)ccc2CN1c1ccc2ncccc2c1 [Example 120790],1.926,27,–,–
–,6.69,CC(=O)Nc1ccc2c(c1)C(=O)N(c1ccc3ccn(C)c3c1)C2 [Example 121505],1.817,47,–,–
–,7.16,CCOc1ccc2c(c1)C(=O)N(c1ccc3c(ccn3C)c1)C2 [Example 121789],1.461,10,1.79,pEC50 [3]: 6.46
–,7.00,CCC(C)c1ccc2c(c1)C(=O)N(c1ccc3c(ccn3C)c1)C2 (stereo not drawn) [Example 122182],1.539,18,–,–
–,6.73,Cn1ccc2cc(N3Cc4ccc(N5CCCC5)cc4C3=O)ccc21 [Example 122317],1.47,45,–,–
–,7.06,Cc1cc2cc(N3Cc4ccc(Cl)cc4C3=O)ccc2n1C [Example 123011],1.481,37,1.89,pEC50 [3]: 5.58
–,7.00,Cc1cc2cc(N3Cc4ccc(N(C)C)cc4C3=O)ccc2n1C [Example 123707],1.635,–,1.44,Average number of gems per 100 nuclei ([2]; 0.1 μM compound): 53; pEC50 [3]: 7.04
–,5.58,COc1ccc2c(c1)C(=O)N(c1ccc3c(c1)cc(C)n3C(C)C)C2 [Example 123714],1.863,84,1.18,pEC50 [3]: 5.72
–,8.05,CN(C)c1ccc2c(c1)C(=O)N(c1ccc3ncccc3c1)C2 [Example 124032],1.659,65,1.02,–
–,6.77,CC(C)Oc1ccc2c(c1)C(=O)N(c1ccc3ccn(C)c3c1)C2 [Example 124326],1.666,98,0.946,SMN:Tubulin ratio as % of Vehicle Control (SMN protein; 3 μM): 147.687%; pEC50 [3]: 6.89
–,7.62,CN(C)c1ccc2c(c1)C(=O)N(c1ccc3c(ccn3C)c1)C2 [Example 124429],1.594,44,–,–
–,7.33,Cn1ccc2ccc(N3Cc4ccc(N5CCCC5)cc4C3=O)cc21 [Example 124596],1.681,43,–,–
–,6.46,COc1ccc2c(c1)C(=O)N(c1ccc3cc(C)n(C)c3c1)C2 [Example 124597],1.358,42,–,–
–,7.37,CN(C)c1ccc2c(c1)C(=O)N(c1ccc3ccn(C)c3c1)C2 [Example 124771],1.689,50,1.8,pEC50 [3]: 5.38
